Source: patent publication US20250161307A1, “PYRAZOLOPYRIMIDINES AS MODULATORS OF SPERMINE OXIDASE” (Janssen Pharmaceutica NV, priority 2022, published 2025)
Where a name gives a salt, the structure may show the parent alone.

Experiments:
[1] = molecular target: SMOX (Homo sapiens (Human), UniProt Q9NWM0); assay: Human SMOX assay (HyPerBlu chemiluminescent detection of hydrogen peroxide); assay type: biochemical; details: 2.5 nM full length hSMOX, spermine substrate, 1 h at room temperature, luminescence read; read-out: SMOx_IC50
Experimental: (§1) The direct detection of hydrogen peroxide produced from the enzymatic reaction of hSMOX or hPAOX in a biochemical assay format was measured using HyPerBlu (Lumigen, Southfield, MI), a small molecule boronate probe that reacts with hydrogen peroxide to generate a chemiluminescent signal. Inhibition of hSMOX or hPAOX enzyme results in a decrease in luminescence.
Test compounds (75 nL) dissolved in DMSO were added to a 384-well white assay plate (Greiner Bio-one, catalog #784075) using an ECHO Acoustic Dispenser (Labcyte). Each compound was serially diluted 3-fold in DMSO to prepare an 11-point dose response curve (columns 1-22). Column 23 and 24 contained 75 nL of 2 mM chlorhexidine and DMSO, respectively, to represent the 100% inhibited versus the neutral control reactions.
Subsequently, 3 μL/well of the substrate solution prepared in assay buffer (10 mM Hepes, pH 7.4, 150 mM NaCl, 1 mM EGTA, 0.01% Pluronic F-127, 0.05% ovalbumin) was dispensed into the assay plate followed by 3 μL/well of full length hSMOX enzyme with an N-terminal His tag from E. coli prepared in assay buffer to initiate the reactions. After a 1 h incubation at room temperature, 6 μL/well of HyPerBlu was added. After a 30 min incubation, the hydrogen peroxide product generated from the hSMOX reactions was measured using an endpoint luminescence read on the PHERAStar FS/FSX microplate reader (BMG LABTECH).
The final assay conditions included 10 mM Hepes, pH 7.4, 150 mM NaCl, 1 mM EGTA, 0.01% Pluronic F-127, 0.05% ovalbumin, 2.5 nM hSMOX, 30 µM spermine, and 1.25% DMSO.
Dose-response curves were fit and compound IC50 values were determined using Genedata Screener (Genedata AG).

[2] = molecular target: hPAOX (Homo sapiens (Human), UniProt Q6QHF9); assay: Human PAOX assay (HyPerBlu chemiluminescent detection of hydrogen peroxide); assay type: biochemical; details: 60 pM recombinant PAOX, 20 μM N-acetylspermine substrate
Experimental: as §1
The hPAOX assay was run and the data analyzed similarly to the hSMOX assay described above, except the reactions contained 60 pM recombinant PAOX with an N-terminal His tag expressed from sf9 insect cells and used 20 μM N-acetylspermine as the substrate.

hPAOX, sequence (Q6QHF9 whole entry): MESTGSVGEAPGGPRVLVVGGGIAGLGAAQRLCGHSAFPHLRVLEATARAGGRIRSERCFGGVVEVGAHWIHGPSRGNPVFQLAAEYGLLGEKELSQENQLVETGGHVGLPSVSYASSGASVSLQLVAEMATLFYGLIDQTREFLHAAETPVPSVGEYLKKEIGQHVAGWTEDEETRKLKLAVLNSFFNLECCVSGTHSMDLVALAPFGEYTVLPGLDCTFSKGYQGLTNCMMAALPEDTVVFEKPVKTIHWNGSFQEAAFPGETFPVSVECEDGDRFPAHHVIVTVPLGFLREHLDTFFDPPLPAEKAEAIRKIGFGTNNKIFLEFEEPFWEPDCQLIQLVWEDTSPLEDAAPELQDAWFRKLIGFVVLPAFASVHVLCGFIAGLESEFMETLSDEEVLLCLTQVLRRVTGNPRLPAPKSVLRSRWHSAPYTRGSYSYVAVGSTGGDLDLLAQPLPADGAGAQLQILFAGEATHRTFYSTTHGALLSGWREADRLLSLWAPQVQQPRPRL
SMOX, sequence (Q9NWM0 whole entry): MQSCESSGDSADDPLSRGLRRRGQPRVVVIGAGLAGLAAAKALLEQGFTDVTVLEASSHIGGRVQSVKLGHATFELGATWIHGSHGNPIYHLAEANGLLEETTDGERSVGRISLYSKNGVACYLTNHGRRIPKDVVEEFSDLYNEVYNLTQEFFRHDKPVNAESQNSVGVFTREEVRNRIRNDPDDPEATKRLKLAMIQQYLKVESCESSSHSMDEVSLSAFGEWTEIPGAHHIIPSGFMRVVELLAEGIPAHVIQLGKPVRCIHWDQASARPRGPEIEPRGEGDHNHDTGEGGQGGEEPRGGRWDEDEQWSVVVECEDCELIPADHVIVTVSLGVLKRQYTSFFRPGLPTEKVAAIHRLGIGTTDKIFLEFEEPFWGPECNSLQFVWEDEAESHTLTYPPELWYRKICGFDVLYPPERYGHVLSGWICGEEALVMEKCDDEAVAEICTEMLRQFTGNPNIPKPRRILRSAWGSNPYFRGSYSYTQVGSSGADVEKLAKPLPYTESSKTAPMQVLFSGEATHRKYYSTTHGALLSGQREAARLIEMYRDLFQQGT

**Q.** With O=C(NCCNc1ccccn1)c1cc2nc(-c3ccccc3)cc(-c3ccccc3)n2n1 [Example 28, 5,7-Diphenyl-N-(2-(pyridin-2-ylamino)ethyl)pyrazolo[1,5-a]pyrimidine-2-carboxamide] as the molecule, how does the IC50 [1] read?
**A.** 156 nM

**Q.** And the IC50 [2]?
**A.** 85 nM

**Q.** Which results are given for O=C(NCCCn1ccnc1)c1cc2nc(-c3ccccc3)cc(N3CC4CC4C3)n2n1 (centres unmarked) [Example 61, N-(3-(1H-Imidazol-1-yl)propyl)-7-(3-azabicyclo[3.1.0]hexan-3-yl)-5-phenylpyrazolo[1,5-a]pyrimidine-2-carboxamide]?
**A.** IC50 [1]: 486 nM; IC50 [2]: 3930 nM

**Q.** How did the IC50 [1] turn out when O=C(NCCc1ccncc1)c1cc2nc(-c3ccccc3)cc(-c3ccccc3)n2n1 [Example 38, 5,7-Diphenyl-N-(2-(pyridin-4-yl)ethyl)pyrazolo[1,5-a]pyrimidine-2-carboxamide] was run?
**A.** 4580 nM

**Q.** And the IC50 [2]?
**A.** 1140 nM

**Q.** With CN1CC(NC(=O)c2nn3c(-c4ccccc4)cc(-c4ccccc4)nc3c2Cl)C1 [Example 49, 3-Chloro-N-(1-methylazetidin-3-yl)-5,7-diphenylpyrazolo[1,5-a]pyrimidine-2-carboxamide] as the molecule, how does the IC50 [1] read?
**A.** 108 nM

**Q.** What about the IC50 [2] of the same molecule?
**A.** 9060 nM

**Q.** Which results are given for CC(C)Oc1cc(-c2ccccc2)nc2cc(C(=O)NC3CN(C)C3)nn12 [Example 75, 7-isopropoxy-N-(1-methylazetidin-3-yl)-5-phenylpyrazolo[1,5-a]pyrimidine-2-carboxamide]?
**A.** IC50 [1]: 737 nM; IC50 [2]: 26700 nM

**Q.** Which results are given for O=C(NCCc1ccccn1)c1cc2nc(-c3ccccc3)cc(-c3ccccc3)n2n1 [Example 39, 5,7-Diphenyl-N-(2-(pyridin-2-yl)ethyl)pyrazolo[1,5-a]pyrimidine-2-carboxamide]?
**A.** IC50 [1]: 2750 nM; IC50 [2]: 1420 nM

**Q.** Which results are given for CC1C(NC(=O)c2cc3nc(-c4ccccc4)cc(-c4ccccc4)n3n2)CN1C (centres unmarked) [Example 55, N-(1,2-Dimethylazetidin-3-yl)-5,7-diphenylpyrazolo[1,5-a]pyrimidine-2-carboxamide]?
**A.** IC50 [1]: 593 nM; IC50 [2]: 6530 nM

**Q.** How did the IC50 [1] turn out when CN1CC(NC(=O)c2cc3nc(-c4ccccc4F)cc(-c4ccccc4)n3n2)C1 [Example 104, 5-(2-fluorophenyl)-N-(1-methylazetidin-3-yl)-7-phenylpyrazolo[1,5-a]pyrimidine-2-carboxamide] was run?
**A.** 1290 nM

**Q.** And the IC50 [2]?
**A.** 1400 nM

**Q.** For CCN1CCC[C@H]1CNC(=O)c1cc2nc(-c3ccccc3)cc(-c3ccccc3)n2n1 [Example 14, (S)—N-((1-Ethylpyrrolidin-2-yl)methyl)-5,7-diphenylpyrazolo[1,5-a]pyrimidine-2-carboxamide], which IC50 [1] is on record?
**A.** 401 nM

**Q.** What about the IC50 [2] of the same molecule?
**A.** 2440 nM

**Q.** For O=C(NCC1CCNC1)c1cc2nc(-c3ccccc3)cc(-c3ccccc3)n2n1 (centres unmarked) [Example 121, 5,7-diphenyl-N-(pyrrolidin-3-ylmethyl)pyrazolo[1,5-a]pyrimidine-2-carboxamide], which IC50 [1] is on record?
**A.** 416 nM

**Q.** And the IC50 [2]?
**A.** 641 nM

**Q.** With CN(C)CCCNC(=O)c1cc2nc(-c3ccccc3)cc(N3CCCCC3)n2n1 [Example 70, N-(3-(dimethylamino)propyl)-5-phenyl-7-(piperidin-1-yl)pyrazolo[1,5-a]pyrimidine-2-carboxamide] as the molecule, how does the IC50 [1] read?
**A.** 930 nM

**Q.** What about the IC50 [2] of the same molecule?
**A.** 3360 nM

**Q.** With CCN1CCC(NC(=O)c2cc3nc(-c4ccccc4)cc(-c4ccccc4)n3n2)C1 (centres unmarked) [Example 5, N-(1-Ethylpyrrolidin-3-yl)-5,7-diphenylpyrazolo[1,5-a]pyrimidine-2-carboxamide] as the molecule, how does the IC50 [1] read?
**A.** 367 nM

**Q.** And the IC50 [2]?
**A.** 914 nM

**Q.** CN(C)CCN(C)C(=O)c1cc2nc(-c3ccccc3)cc(-c3ccccc3)n2n1 [Example 44, N-(2-(Dimethylamino)ethyl)-N-methyl-5,7-diphenylpyrazolo[1,5-a]pyrimidine-2-carboxamide] was tested. Which IC50 [1] did it give?
**A.** 7340 nM

**Q.** And the IC50 [2]?
**A.** > 31200 nM

**Q.** What does the source list for Cn1ccc(-c2cc(-c3ccccc3)nc3cc(C(=O)NCCCn4ccnc4)nn23)n1 [Example 85, N-(3-(1H-imidazol-1-yl)propyl)-7-(1-methyl-1H-pyrazol-3-yl)-5-phenylpyrazolo[1,5-a]pyrimidine-2-carboxamide]?
**A.** IC50 [1]: 812 nM; IC50 [2]: 2370 nM

**Q.** With CN1CCC(NC(=O)c2nn3c(-c4ccccc4)cc(-c4ccccc4)nc3c2I)C1 (centres unmarked) [Example 47, 3-Iodo-N-(1-methylpyrrolidin-3-yl)-5,7-diphenylpyrazolo[1,5-a]pyrimidine-2-carboxamide] as the molecule, how does the IC50 [1] read?
**A.** 125 nM

**Q.** And the IC50 [2]?
**A.** 20600 nM

**Q.** Which results are given for CC(CN)CNC(=O)c1cc2nc(-c3ccccc3)cc(-c3ccccc3)n2n1 (centres unmarked) [Example 120, N-(3-amino-2-methylpropyl)-5,7-diphenylpyrazolo[1,5-a]pyrimidine-2-carboxamide hydrochloride]?
**A.** IC50 [1]: 582 nM; IC50 [2]: 1220 nM

**Q.** Which IC50 [1] does the source give for CN(C)CCNC(=O)c1cc2nc(-c3ccccc3)cc(-c3ccccc3)n2n1 [Example 10, N-(2-(Dimethylamino)ethyl)-5,7-diphenylpyrazolo[1,5-a]pyrimidine-2-carboxamide] here?
**A.** 617 nM

**Q.** What about the IC50 [2] of the same molecule?
**A.** 1380 nM

**Q.** Which results are given for CN1CC[C@H](NC(=O)c2cc3nc(-c4ccccc4)cc(-c4ccccc4)n3n2)C1 [Example 7, (S)—N-(1-Methylpyrrolidin-3-yl)-5,7-diphenylpyrazolo[1,5-a]pyrimidine-2-carboxamide]?
**A.** IC50 [1]: 712 nM; IC50 [2]: 1330 nM

**Q.** How did the IC50 [1] turn out when CN1CC(NC(=O)c2cc3nc(-c4ccccc4)cc(N4CCC[C@@H](O)C4)n3n2)C1 [Example 67, (R)-7-(3-hydroxypiperidin-1-yl)-N-(1-methylazetidin-3-yl)-5-phenylpyrazolo[1,5-a]pyrimidine-2-carboxamide] was run?
**A.** 177 nM

**Q.** And the IC50 [2]?
**A.** 3600 nM

**Q.** Which results are given for O=C(NCC1CCN(C2CC2)C1)c1cc2nc(-c3ccccc3)cc(-c3ccccc3)n2n1 (centres unmarked) [Example 22, N-((1-Cyclopropylpyrrolidin-3-yl)methyl)-5,7-diphenylpyrazolo[1,5-a]pyrimidine-2-carboxamide]?
**A.** IC50 [1]: 691 nM; IC50 [2]: 535 nM

**Q.** O=C(NCCN1CCC1)c1cc2nc(-c3ccccc3)cc(-c3ccccc3)n2n1 [Example 36, N-(2-(Azetidin-1-yl)ethyl)-5,7-diphenylpyrazolo[1,5-a]pyrimidine-2-carboxamide] was tested. Which IC50 [1] did it give?
**A.** 360 nM

**Q.** What about the IC50 [2] of the same molecule?
**A.** 995 nM

**Q.** Which results are given for O=C(NCCCNc1ccccn1)c1cc2nc(-c3ccccc3)cc(-c3ccccc3)n2n1 [Example 26, 5,7-Diphenyl-N-(3-(pyridin-2-ylamino)propyl)pyrazolo[1,5-a]pyrimidine-2-carboxamide]?
**A.** IC50 [1]: 324 nM; IC50 [2]: 22 nM

**Q.** Which results are given for CN1CCC(C)(CNC(=O)c2nn3c(-c4ccccc4)cc(-c4ccccc4)nc3c2I)C1 (centres unmarked) [Example 48, N-((1,3-Dimethylpyrrolidin-3-yl)methyl)-3-iodo-5,7-diphenylpyrazolo[1,5-a]pyrimidine-2-carboxamide]?
**A.** IC50 [1]: 698 nM; IC50 [2]: 7590 nM

**Q.** For O=C(NC1CCC1)c1cc2nc(-c3ccccc3)cc(-c3ccccc3)n2n1 [Example 41, N-Cyclobutyl-5,7-diphenylpyrazolo[1,5-a]pyrimidine-2-carboxamide], which IC50 [1] is on record?
**A.** > 31200 nM

**Q.** And the IC50 [2]?
**A.** > 31200 nM

**Q.** Which results are given for O=C(NCCCn1ccnc1)c1cc2nc(-c3ccccc3)cc(C3CCCO3)n2n1 (centres unmarked) [Example 110, N-(3-(1H-imidazol-1-yl)propyl)-5-phenyl-7-(tetrahydrofuran-2-yl)pyrazolo[1,5-a]pyrimidine-2-carboxamide]?
**A.** IC50 [1]: 1750 nM; IC50 [2]: 3070 nM

**Q.** Which IC50 [1] does the source give for NCCNC(=O)c1cc2nc(-c3ccccc3)cc(-c3ccccc3)n2n1 [Example 119, N-(2-aminoethyl)-5,7-diphenylpyrazolo[1,5-a]pyrimidine-2-carboxamide hydrochloride] here?
**A.** 801 nM

**Q.** What about the IC50 [2] of the same molecule?
**A.** 2400 nM

**Q.** With Cc1cc(-c2ccccc2)nc2cc(C(=O)NCCCn3ccnc3)nn12 [Example 123, N-(3-(1H-imidazol-1-yl)propyl)-7-methyl-5-phenylpyrazolo[1,5-a]pyrimidine-2-carboxamide] as the molecule, how does the IC50 [1] read?
**A.** 9770 nM

**Q.** What about the IC50 [2] of the same molecule?
**A.** 4040 nM

**Q.** For CC(=O)Nc1cccc(-c2cc(-c3ccccc3)nc3cc(C(=O)NCCCn4ccnc4)nn23)c1 [Example 77, N-(3-(1H-imidazol-1-yl)propyl)-7-(3-acetamidophenyl)-5-phenylpyrazolo[1,5-a]pyrimidine-2-carboxamide], which IC50 [1] is on record?
**A.** 519 nM

**Q.** And the IC50 [2]?
**A.** 544 nM

**Q.** How did the IC50 [1] turn out when CN1CCC(NC(=O)c2cc3nc(-c4ccccc4)cc(-c4ccccc4)n3n2)C1 (centres unmarked) [Example 6, N-(1-Methylpyrrolidin-3-yl)-5,7-diphenylpyrazolo[1,5-a]pyrimidine-2-carboxamide] was run?
**A.** 230 nM

**Q.** What about the IC50 [2] of the same molecule?
**A.** 4950 nM

**Q.** Which IC50 [1] does the source give for CN1CC(NC(=O)c2cc3nc(-c4ccccc4)cc(Oc4ccccc4)n3n2)C1 [Example 76, N-(1-methylazetidin-3-yl)-7-phenoxy-5-phenylpyrazolo[1,5-a]pyrimidine-2-carboxamide] here?
**A.** 725 nM

**Q.** What about the IC50 [2] of the same molecule?
**A.** 5370 nM

**Q.** With O=C(NCCc1c[nH]cn1)c1cc2nc(-c3ccccc3)cc(-c3ccccc3)n2n1 [Example 34, N-(2-(1H-Imidazol-4-yl)ethyl)-5,7-diphenylpyrazolo[1,5-a]pyrimidine-2-carboxamide] as the molecule, how does the IC50 [1] read?
**A.** 262 nM

**Q.** And the IC50 [2]?
**A.** 11 nM
